Results as given in patent publication US8598154B2 (Corcept Therapeutics, Inc., priority 2010, dated 2013).

Columns and labels:
[1] = biological target: T1, glucocorticoid receptors (GR) in SW1353/MMTV-5 cells (Homo sapiens, UniProt P04150); experiment: GR functional assay using SW1353/MMTV-5 cells (MMTV-luciferase reporter); assay type: cell-based
T1 construct: contains endogenous glucocorticoid receptors; endogenous in cells; host or cells: SW1353/MMTV-5 (human chondrosarcoma, stably transfected with the pMAMneo-Luc reporter only)
T1 sequence (P04150 1-777): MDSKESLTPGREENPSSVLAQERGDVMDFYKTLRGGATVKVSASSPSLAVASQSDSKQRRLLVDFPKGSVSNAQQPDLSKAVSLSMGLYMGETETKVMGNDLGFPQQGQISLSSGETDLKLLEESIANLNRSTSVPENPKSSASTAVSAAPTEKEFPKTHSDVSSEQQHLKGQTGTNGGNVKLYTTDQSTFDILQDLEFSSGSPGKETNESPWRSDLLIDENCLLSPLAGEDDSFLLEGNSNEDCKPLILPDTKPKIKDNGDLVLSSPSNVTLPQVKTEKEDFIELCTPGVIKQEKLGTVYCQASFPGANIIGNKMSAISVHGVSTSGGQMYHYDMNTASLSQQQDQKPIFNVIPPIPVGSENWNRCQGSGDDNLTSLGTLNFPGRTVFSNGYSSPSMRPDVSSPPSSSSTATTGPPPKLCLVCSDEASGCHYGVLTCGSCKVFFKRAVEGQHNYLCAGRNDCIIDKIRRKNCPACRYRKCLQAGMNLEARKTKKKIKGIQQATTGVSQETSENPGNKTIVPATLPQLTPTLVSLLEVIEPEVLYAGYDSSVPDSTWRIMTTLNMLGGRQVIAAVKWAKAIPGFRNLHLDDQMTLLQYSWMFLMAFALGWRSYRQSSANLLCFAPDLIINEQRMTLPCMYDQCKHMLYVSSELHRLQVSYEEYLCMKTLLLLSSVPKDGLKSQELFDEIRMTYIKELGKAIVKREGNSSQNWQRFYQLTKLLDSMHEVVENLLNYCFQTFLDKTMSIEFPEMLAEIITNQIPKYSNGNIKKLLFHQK
Experimental: SW1353/MMTV-5 is an adherent human chondrosarcoma cell line that contains endogenous glucocorticoid receptors. It was transfected with a plasmid (pMAMneo-Luc) encoding firefly luciferase located behind a glucocorticoid-responsive element (GRE) derived from a viral promoter (long terminal repeat of mouse mammary tumor virus). A stable cell line SW1353/MMTV-5 was selected with geneticin, which was required to maintain this plasmid.
SW1353/MMTV-5 cells were distributed in 96-well plates and incubated in medium (without geneticin) for 24 hrs (in the absence of CO2).

[2] = biological target: T2, Human Recombinant Glucocorticoid Receptor (Homo sapiens, UniProt P04150); experiment: Glucocorticoid receptor binding displacement assay with 3H-dexamethasone; details: displacement of 2.5 nM 3H-dexamethasone; Ki from IC50 by Cheng-Prusoff; read-out: GR Binding Ki
T2 construct: This GR was a full-length steroid hormone receptor likely to be associated with heat-shock and other endogenous proteins; host or cells: baculovirus-infected insect cells
T2 sequence (P04150 1-777): T1 sequence (P04150 1-777)
Experimental: The source of the receptor was recombinant baculovirus-infected insect cells. This GR was a full-length steroid hormone receptor likely to be associated with heat-shock and other endogenous proteins.
For the Primary Screen, test compounds were tested at 1 μM in duplicate. These compounds were diluted from 10 mM stock in 100% DMSO. After dilution to 100 μM, 5 μl were added to 245 μl assay buffer to obtained 2 μM compound and 2% DMSO.
For the IC50 determinations, test compounds were tested at 6 concentrations in duplicate (concentration range depends on % inhibition binding that was obtained in the Primary Screen). Test compounds were diluted from 10 mM stock in 100% DMSO. The tested solutions were prepared at 2× final assay concentration in 2% DMSO/assay buffer.
All reagents and the assay plate were kept on ice during the addition of reagents. […] After the additions, the incubation mixture was mixed and incubated for 2.5 hrs at 4° C.
After 2.5 hrs incubation, unbound counts were removed with dextran coated charcoal (DCC) as follows: 25 μl of DCC solution (10% DCC in assay buffer) was added to all wells and mixed (total volume 225 μl). The plate was centrifuged at 4000 rpm for 10 minutes at 4° C. 75 μl of the supernatants (i.e.⅓ of total volume) was carefully pipetted into an optiplate. 200 μl of scintillation cocktail were added (Microscint-40, Packard Bioscience. B.V.). The plate was vigorously shaken for approx. 10 minutes and counted on Topcount.
The IC50 values were converted to Ki (the inhibition constant) using the Cheng-Prusoff equation. Test results are presented in Tablel.
Reagents: Assay buffer: 10 mM potassium phosphate buffer pH 7.6 containing 5 mM DTT, 10 mM sodium molybdate, 100 μM EDTA and 0.1% BSA.

SMILES	Ki [1]	Ki [2]
CNc1ccc(S(=O)(=O)N2CCC3=Cc4c(cnn4-c4ccc(F)cc4)C[C@]3(COC)C2)cn1 [Example 9, (R)-1-(4-Fluorophenyl)-4a-methoxymethyl-6-[[6-methylamino-3-pyridinyl]sulfonyl]-1,4,7,8-tetrahydro-1,2,6-triazacyclopenta[b]naphthalene]	> 50 nM	> 1 nM
COC[C@]12Cc3cnn(-c4ccc(F)cc4)c3C=C1CCN(S(=O)(=O)c1ccc(N(C)C)nc1)C2 [Example 10, (R)-6-[[6-Dimethylamino-3-pyridinyl]sulfonyl]-1-(4-fluorophenyl)-4a-methoxymethyl-1,4,7,8-tetrahydro-1,2,6-triazacyclopenta[b]naphthalene]	10 to 50 nM	0.5 to 1 nM
COC[C@]12Cc3cnn(-c4ccc(F)cc4)c3C=C1CCN(S(=O)(=O)c1ccc(N3CCC3)nc1)C2 [Example 11, (R)-6-[[6-(1-Azetidinyl)-3-pyridinyl]sulfonyl]-1-(4-fluorophenyl)-4a-methoxymethyl-1,4,7,8-tetrahydro-1,2,6-triazacyclopenta[b]naphthalene]	10 to 50 nM	0.5 to 1 nM
COC[C@]12Cc3cnn(-c4ccc(F)cc4)c3C=C1CCN(S(=O)(=O)c1cncc(N3CCOCC3)c1)C2 [Example 12, (R)-1-(4-Fluorophenyl)-4a-methoxymethyl-6-(5-morpholin-4-ylpyridine-3-sulfonyl)-4,4a,5,6,7,8-hexahydro-1H-1,2,6-triazacyclopenta[b]naphthalene]	> 50 nM	> 1 nM
COC[C@]12Cc3cnn(-c4ccc(F)cc4)c3C=C1CCN(S(=O)(=O)c1cncc(N3CCC3)c1)C2 [Example 13, (R)-6-(5-Azetidin-1-ylpyridine-3-sulfonyl)-1-(4-fluorophenyl)-4a-methoxymethyl-4,4a,5,6,7,8-hexahydro-1H-1,2,6-triazacyclopenta[b]naphthalene]	10 to 50 nM	< 0.5 nM
COC[C@]12Cc3cnn(-c4ccc(F)cc4)c3C=C1CCN(S(=O)(=O)c1ccc(N3CCOCC3)nc1)C2 [Example 14, (R)-1-(4-Fluorophenyl)-4a-methoxymethyl-6-(6-morpholin-4-yl-pyridine-3-sulfonyl)-4,4a,5,6,7,8-hexahydro-1H-1,2,6-triazacyclopenta[b]naphthalene]	10 to 50 nM	0.5 to 1 nM
O=S(=O)(c1ccc(N2CCOCC2)nc1)N1CCC2=Cc3c(cnn3-c3ccc(F)cc3)C[C@]2(COC(F)F)C1 [Example 15, (R)-4a-Difluoromethoxymethyl-1-(4-fluorophenyl)-6-(6-morpholin-4-yl-pyridine-3-sulfonyl)-4,4a,5,6,7,8-hexahydro-1H-1,2,6-triazacyclopenta[b]naphthalene]	10 to 50 nM	> 1 nM
O=S(=O)(c1ccc(N2CCC2)nc1)N1CCC2=Cc3c(cnn3-c3ccc(F)cc3)C[C@]2(COC(F)F)C1 [Example 17, (R)-6-(6-Azetidin-1-ylpyridine-3-sulfonyl)-4a-difluoromethoxymethyl-1-(4-fluorophenyl)-4,4a,5,6,7,8-hexahydro-1H-1,2,6-triazacyclopenta[b]naphthalene]	10 to 50 nM	> 1 nM
COC[C@]12Cc3cnn(-c4ccc(F)cc4)c3C=C1CCN(S(=O)(=O)c1ccc(N3CCNCC3)nc1)C2 [Example 18, (R)-1-(4-Fluorophenyl)-4a-methoxymethyl-6-[[6-(1-piperazinyl)-3-pyridinyl]sulfonyl]-1,4,7,8-tetrahydro-1,2,6-triazacyclopenta[b]naphthalene]	> 50 nM	> 1 nM
COC[C@]12Cc3cnn(-c4ccc(F)cc4)c3C=C1CCN(S(=O)(=O)c1ccc(N3CCN(C)CC3)nc1)C2 [Example 19, (R)-1-(4-Fluorophenyl)-4a-methoxymethyl-6-[[6-(1-(4-methylpiperazinyl))-3-pyridinyl]sulfonyl]-1,4,7,8-tetrahydro-1,2,6-triazacyclopenta[b]naphthalene]	> 50 nM	> 1 nM
